Results reported in patent US9629857B2, “Therapeutic uses of glutathione mimics” (BOARD OF TRUSTEES OF NORTHERN ILLINOIS UNIVERSITY, priority 2007, dated 2017).

Legend:
[1] = after first pass metabolism; cited from earlier work
alkaline phosphatase = assay: Digestion of the phosphorylated prodrug with alkaline phosphatase, followed by 31P NMR; type: in vitro ADME; details: 1 mg (10 units) alkaline phosphatase in water, stirred for 2 hours
Description: N-acetyl-S-phosphocysteine was synthesized according to the procedure followed by Binkely (1954). N-acetyl cysteine (0.5 g) was dissolved in 8 mL of distilled water in an ice bath. The NAC solution was then treated with 0.2 mL of phosphorus oxychloride and with sodium hydroxide to maintain the basic pH of 11. The resulting white solid was dried and re-dissolved in deuterium oxide for ^31P, ^13C and ^1H NMR analysis. After analysis, the sample was dried, re-suspended in water, and treated with 1 mg (10 units) of alkaline phosphatase, and stirred for 2 hours. The solution was dried and resuspended in deuterium oxide for NMR analysis.
Synthesis of ester cysteine was followed according to the procedure as follows. NAC (0.2 g) was dissolved in 7 mL of ethanol, 2 mL of concentrated hydrochloric acid and stirred at room temperature for 1 hour. The reaction mixture was refluxed for 1 hour at 60° C. The sample was then dried and resuspended in acetonitrile for ESI-MS analysis (same instrument settings as described for analysis of HIDD). The acid protected sample was phosphorylated with POCL3, and sodium hydroxide dried and resuspended in deuterium oxide for NMR analysis. After analysis, the sample was dried, resuspended in water, treated with 1 mg (10 units) of alkaline phosphatase and stirred for 2 hours. […]
The ester NAC was synthesized according to the procedure as follows and analyzed with ESI-MS. […]

Row | SMILES | presence of free drug in the systemic circulation [1] | cleavage of S—P linkage on digestion with alkaline phosphatase (31P NMR) (alkaline phosphatase)
1 | CC(=O)N[C@@H](CS)C(=O)O [NAC, N-acetyl cysteine] | around 9% | 
2 | CC(=O)N[C@@H](CSP(=O)(O)O)C(=O)O [phosphorylated NAC, N-acetyl-S-phosphocysteine] |  | hydrolyzed with alkaline phosphatase
